From ChEMBL document CHEMBL1129161, “Studies on the active metabolite (DU-86) of KW-2189, a novel derivative of duocarmycin” (Bioorg Med Chem Lett, 1996)

How the values were obtained:
Sarcoma-180 [1] = assay: Antitumor activity expressed as T/C at an intravenous dose of 0.13 mg/kg in mice implanted subcutaneously with murine sarcoma 180 cells.; assay type: functional, Mus musculus
HeLa [2] = assay: Concentration required to inhibit the growth of HeLa S3 cells after 72 hours.; assay type: functional, cell-based; conditions: Homo sapiens
Sarcoma-180 [3] = assay: Antitumor activity expressed as T/C at an intravenous dose of 1.0 mg/kg in mice implanted subcutaneously with murine sarcoma 180 cells.; assay type: functional, Mus musculus
HeLa [4] = assay: Concentration required to inhibit the growth of HeLa S3 cells after 1 hour.; assay type: functional, cell-based; conditions: Homo sapiens
Sarcoma-180 [5] = assay: Antitumor activity expressed as T/C at an intravenous dose of 8.0 mg/kg in mice implanted subcutaneously with murine sarcoma 180 cells.; assay type: functional, Mus musculus

| Compound | T/C (Sarcoma-180 [1]) | IC50 (HeLa [2]) [nM] | T/C (Sarcoma-180 [3]) | IC50 (HeLa [4]) [nM] | T/C (Sarcoma-180 [5]) |
| --- | --- | --- | --- | --- | --- |
| COC(=O)c1c(C)[nH]c2c1[C@@]13C[C@@H]1CN(C(=O)c1cc4cc(OC)c(OC)c(OC)c4[nH]1)C3=CC2=O | 0.18 | – | – | – | – |
| COC(=O)c1c2c(n(C)c1C)C(=O)C=C1N(C(=O)c3cc4cc(OC)c(OC)c(OC)c4[nH]3)C[C@H]3C[C@]123 | – | 0.069 | 0.22 | 1.4 | – |
| COC(=O)c1c(C)[nH]c2c1[C@@]13C[C@@H]1Cn1c(O)c4nc5c(OC)c(OC)c(OC)cc5c-4c(c13)C2=O | – | 6.6 | – | 36 | – |
| COC(=O)c1c2c(n(C)c1C)C(=O)C=C1N(C(=O)c3cc4cc(OC)c(OC)c(OC)c4n3C)C[C@H]3C[C@]123 | – | 230 | – | 890 | 0.96 |
